Reference: ChEMBL document CHEMBL3046204, “Protective effect of Centaurea pallescens Del. against CCl4-induced injury on a human hepatoma cell line (Huh7)” (2013)
Activity calls are given as the source filed them. No cut-off for these calls is given here.

How the values were obtained:
Huh-7 [1] = experiment: Hepatoprotective activity against CCL4-induced toxicity in human HuH7 cells assessed as decrease in alanine transaminase level at 10 to 1000 ug/ml incubated for 1 hr prior to CCL4-challenge measured after 2 hrs relative to control; assay type: functional, cell-based
Huh-7 [2] = experiment: Hepatoprotective activity against CCL4-induced toxicity in human HuH7 cells assessed as increase in GSH level at 10 to 1000 ug/ml incubated for 1 hr prior to CCL4-challenge measured after 2 hrs relative to control; assay type: functional, cell-based
Huh-7 [3] = experiment: Hepatoprotective activity against CCL4-induced toxicity in human HuH7 cells assessed as decrease in aspartate aminotransferase level at 10 to 1000 ug/ml incubated for 1 hr prior to CCL4-challenge measured after 2 hrs relative to control; assay type: functional, cell-based
Huh-7 [4] = experiment: Hepatoprotective activity against CCL4-induced toxicity in human HuH7 cells assessed as increase in superoxide dismutase activity at 10 to 1000 ug/ml incubated for 1 hr prior to CCL4-challenge measured after 2 hrs relative to control; assay type: functional, cell-based
Huh-7 [5] = experiment: Hepatoprotective activity against CCL4-induced toxicity in human HuH7 cells assessed as aspartate aminotransferase level at 10 ug/ml incubated for 1 hr prior to CCL4-challenge measured after 2 hrs (reference value: 38.9 +/- 7.9 U/ml); assay type: functional
Huh-7 [6] = experiment: Hepatoprotective activity against CCL4-induced toxicity in human HuH7 cells assessed as alanine transaminase level at 100 ug/ml incubated for 1 hr prior to CCL4-challenge measured after 2 hrs (reference value: 21.5 +/- 3.7 U/ml); assay type: functional
Huh-7 [7] = experiment: Hepatoprotective activity against CCL4-induced toxicity in human HuH7 cells assessed as superoxide dismutase activity at 100 ug/ml incubated for 1 hr prior to CCL4-challenge measured after 2 hrs (reference value: 168.4 +/- 24.9 U/ml); assay type: functional

SMILES: O=c1c(O[C@@H]2O[C@H](CO)[C@@H](O)[C@H](O)[C@H]2O)c(-c2ccc(O)c(O)c2)oc2cc(O)cc(O)c12
- Activity (Huh-7 [1]): Active
- Activity (Huh-7 [2]): Active
- Activity (Huh-7 [3]): Active
- Activity (Huh-7 [4]): Active

SMILES: O=c1c(OC2O[C@H](CO)[C@@H](O)[C@H](O)[C@H]2O)c(-c2cc(O)c(O)c(O)c2)oc2cc(O)cc(O)c12 (stereo not given in full) [MYRICETIN 3-O-GLUCOSIDE]
- Activity (Huh-7 [1]): Active
- Activity (Huh-7 [2]): Active
- Activity (Huh-7 [3]): Active
- Activity (Huh-7 [4]): Active
- Activity (Huh-7 [5]): 5.8 U/ml

SMILES: COc1ccc(-c2oc3cc(O[C@@H]4O[C@@H](C)[C@H](OC(=O)/C=C/c5ccc(O)cc5)[C@@H](O)[C@H]4O)cc(O)c3c(=O)c2O[C@@H]2O[C@H](CO)[C@@H](O)[C@H](O[C@@H]3O[C@@H](C)[C@H](O)[C@@H](O)[C@H]3O)[C@H]2OC(=O)/C=C/c2ccc(O)cc2)cc1
- Activity (Huh-7 [6]): 18.6 U/ml
- Activity (Huh-7 [1]): Active
- Activity (Huh-7 [2]): Active
- Activity (Huh-7 [3]): Active
- Activity (Huh-7 [7]): 264.6 U/ml
- Activity (Huh-7 [4]): Active
